What is called IC50 is the concentration needed to halve the response being measured. One may read the melting point as the temperature, or range, at which the solid turns liquid.

The subject of one data set is VCaP cells. Put plainly: Prostate Cancer Cell Viability Assay-VCaP. Format: cell-based. The note with it: Homo sapiens, 120 h, 10% Charcoal Stripped Serum, 5 days, CellTiter-Glo, * n = 1. How it is done:
VCaP cells were counted and seeded into black 384-well plates with clear bottoms at a concentration of 125,000 cells per mL in phenol red-free DMEM containing 10% Charcoal Stripped Serum. 16 μL of the suspension was added per well and incubated for 48 h to allow the cells to adhere. After 48 hours, a 12 point serial semilog dilution of each compound was added to the cells in 16 μL at a final concentration of 100 µM to 0.0003 μM. The compounds of Formula (I) were also run in antagonist mode using 30 pM R1881 in which 8 μL of the compound was added to the cells followed by 8 μL of R1881. After 5 days of incubation at 37° C., 16 μL Of CellTiter-Glo (Promega) was added to the cells and the relative luminescence units (RLUs) of each well determined using the Envision. The percent stimulation and % inhibition were determined for each sample and plotted using GraphPad Prism.
For orientation: ATP-based viability assays read luminescence as a measure of living cells.

Structures can show the parent of a compound that is named as a salt.

In the case of `CC1(C)C(=O)N(c2ccc(C#N)c(C(F)(F)F)c2)C(=S)N1c1ccc(OC2CCNCC2)cc1` [Compound 1, 4-(4,4-Dimethyl-5-oxo-3-(4-(piperidin-4-yloxy)phenyl)-2-thioxoimidazolidin-1-yl)-2-(trifluoromethyl)benzonitrile], the IC50 with VCaP cells is 2.31 µM. The same measure, in the same setting: then `CC1(C)C(=O)N(c2ccc(C#N)c(Cl)c2)C(=S)N1c1ccc(OC2CCNCC2)nc1` [Compound 9, 2-Chloro-4-(4,4-dimethyl-5-oxo-3-(6-(piperidin-4-yloxy)pyridin-3-yl)-2-thioxoimidazolidin-1-yl)benzonitrile hydrochloride], with 1.68 µM. `CN1CCC(Oc2ncc(N3C(=S)N(c4ccc(C#N)c(C(F)(F)F)c4)C(=O)C34CCC4)cn2)CC1` [Compound 16, 4-(5-(2-((1-Methylpiperidin-4-yl)oxy)pyrimidin-5-yl)-8-oxo-6-thioxo-5,7-diazaspiro[3.4]octan-7-yl)-2-(trifluoromethyl)benzonitrile] yielded a melting point of 161.9 °C. This compound yielded an IC50 in the data set with VCaP cells of 5.29 µM. For `N#Cc1ccc(N2C(=O)C3(CCC3)N(c3ccc(OC4CCNCC4)cc3)C2=S)cc1C(F)(F)F` [Compound 11, 4-(8-Oxo-5-(4-(piperidin-4-yloxy)phenyl)-6-thioxo-5,7-diazaspiro[3.4]octan-7-yl)-2-(trifluoromethyl)benzonitrile] the same measures were 172.4 °C and 1.06 µM. The compound `Cc1cc(N2C(=O)C3(CCC3)N(c3ccc(OC4CCN(C)CC4)cc3)C2=S)ccc1C#N` [Compound 17, 2-Methyl-4-(5-(4-((1-methylpiperidin-4-yl)oxy)phenyl)-8-oxo-6-thioxo-5,7-diazaspiro[3.4]octan-7-yl)benzonitrile] had an IC50 in the data set with VCaP cells of 3.42 µM. Same read-out and setting: then `CC1(C)C(=O)N(c2ccc(C#N)c(C(F)(F)F)c2)C(=S)N1c1ccc(OC2CCNCC2)nc1` [Compound 3, 4-(4,4-Dimethyl-5-oxo-3-(6-(piperidin-4-yloxy)pyridin-3-yl)-2-thioxoimidazolidin-1-yl)-2-(trifluoromethyl)benzonitrile hydrochloride], with 4.86 µM. `CN1CCC(Oc2ccc(N3C(=S)N(c4ccc(C#N)c(C(F)(F)F)c4)C(=O)C34CCC4)cc2)CC1` [Compound 12, 4-(5-(4-((1-Methylpiperidin-4-yl)oxy)phenyl)-8-oxo-6-thioxo-5,7-diazaspiro[3.4]octan-7-yl)-2-(trifluoromethyl)benzonitrile] had a melting point of 99.3 °C. In addition, half-maximal inhibition with VCaP cells (IC50) was put at 21 µM. Regarding `CN1CCC(Oc2ccc(N3C(=S)N(c4ccc(C#N)c(Cl)c4)C(=O)C3(C)C)cc2)CC1` [Compound 8, 2-Chloro-4-(4,4-dimethyl-3-(4-((1-methylpiperidin-4-yl)oxy)phenyl)-5-oxo-2-thioxoimidazolidin-1-yl)benzonitrile hydrochloride], in the data set with VCaP cells, the midpoint of inhibition, the IC50, lay at 3.48 µM. Consider `CN1CCC(Oc2ncc(N3C(=S)N(c4ccc(C#N)c(C(F)(F)F)c4)C(=O)C3(C)C)cn2)CC1` [Compound 6, 4-(4,4-Dimethyl-3-(2-((1-methylpiperidin-4-yl)oxy)pyrimidin-5-yl)-5-oxo-2-thioxoimidazolidin-1-yl)-2-(trifluoromethyl)benzonitrile], for which the melting point was 204.9 °C. In addition, in the data set with VCaP cells, the IC50 was 18.4 µM.

For the origin of these results see patent US20190337924A1, “SUBSTITUTED HYDANTOIN AND THIOHYDANTOIN DERIVATIVES AS ANDROGEN RECEPTOR ANTAGONISTS” (Janssen Pharmaceutica NV, priority 2016, published 2019).
